Each block holds one molecule with its values, some of them ahead of it.
What was measured:
CD19.28z CAR T cells = experiment: CAR T cell activation and degranulation (CD69/CD107a) on co-culture with Nalm6 tumor cells in presence of drug; settings: nanomolar levels; 6 hours co-culture with tumor
HA-GD2.28z CAR T cells [1] = experiment: Cytokine release after expansion in drug and removal of drug before tumor co-culture; type: cell-based, human
Fyn = Fyn (Homo sapiens, UniProt P06241); settings: cited from earlier work
Sequence of Fyn (P06241 whole entry, species assumed): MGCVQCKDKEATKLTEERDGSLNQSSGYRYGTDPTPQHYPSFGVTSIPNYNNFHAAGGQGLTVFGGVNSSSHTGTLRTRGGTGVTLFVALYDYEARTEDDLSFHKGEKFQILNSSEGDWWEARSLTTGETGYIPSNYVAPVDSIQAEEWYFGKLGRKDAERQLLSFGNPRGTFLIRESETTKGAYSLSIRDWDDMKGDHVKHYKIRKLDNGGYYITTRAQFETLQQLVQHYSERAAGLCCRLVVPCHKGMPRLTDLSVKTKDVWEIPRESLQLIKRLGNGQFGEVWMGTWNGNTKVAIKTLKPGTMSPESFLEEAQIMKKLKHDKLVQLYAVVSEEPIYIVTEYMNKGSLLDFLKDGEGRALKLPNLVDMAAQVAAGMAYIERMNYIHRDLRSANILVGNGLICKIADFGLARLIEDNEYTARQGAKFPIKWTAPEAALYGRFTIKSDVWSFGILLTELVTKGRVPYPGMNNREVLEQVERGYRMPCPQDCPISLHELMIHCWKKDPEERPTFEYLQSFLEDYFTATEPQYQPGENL

Lck = Lck (Homo sapiens, UniProt P06239); settings: cited from earlier work
Sequence of Lck (P06239 whole entry, species assumed): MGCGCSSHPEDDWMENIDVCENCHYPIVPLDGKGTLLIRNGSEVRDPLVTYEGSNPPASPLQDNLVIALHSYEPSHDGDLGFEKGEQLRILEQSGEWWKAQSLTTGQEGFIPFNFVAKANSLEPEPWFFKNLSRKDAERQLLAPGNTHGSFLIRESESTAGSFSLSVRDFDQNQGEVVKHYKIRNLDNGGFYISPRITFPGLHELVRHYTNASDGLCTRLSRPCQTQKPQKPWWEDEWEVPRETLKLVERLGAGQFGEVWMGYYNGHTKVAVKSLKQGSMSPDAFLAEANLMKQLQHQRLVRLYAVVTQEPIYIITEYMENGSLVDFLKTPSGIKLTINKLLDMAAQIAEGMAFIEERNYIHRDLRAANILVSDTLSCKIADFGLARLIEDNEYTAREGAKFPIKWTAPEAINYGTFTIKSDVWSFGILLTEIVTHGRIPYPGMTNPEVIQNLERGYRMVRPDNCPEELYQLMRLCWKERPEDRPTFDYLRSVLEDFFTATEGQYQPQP

HA-GD2.28z CAR T cells [2] = experiment: Cytokine release assay (ELISA), CAR T cells co-cultured with GD2-overexpressing nalm6 in presence of drug; settings: drug present during 24 hours co-culture
Src kinases = settings: cited from earlier work
HA-GD2.28z CAR T cells [3] = experiment: Incucyte cytotoxicity after expansion in drug and removal of drug before tumor co-culture; settings: expanded in drug, drug removed 18-24 hours before 72 hours co-culture
GD2.28z.FKBP CAR = experiment: Regulation of GD2.28z.FKBP CAR surface expression by shield-1 (FACS); type: cell-based, human; settings: adding or subtracting shield-1 in culture medium
Description: FIG. 1: Characterization of the GD2.28z.FKBP CAR. T cells were transduced with lentivirus encoding the GD2.28z.FKBP CAR on day 1 after activation and subsequently cultured with various concentrations of shield-1 in the growth medium. On day 7, CAR expression was quantified via FACS.

[4] = biological target: CD19 (Homo sapiens (Human)) (UniProt P15391)

Molecule: Cc1ccc(C(=O)Nc2ccc(CN3CCN(C)CC3)c(C(F)(F)F)c2)cc1C#Cc1cnc2cccnn12 [ponatinib, 3-(imidazo[1,2-b]pyridazin-3-ylethynyl)-4-methyl-N-(4-((4-methylpiperazin-1-yl)methyl)-3-(trifluoromethyl)phenyl)benzamide]
activation and degranulation (CD69 and CD107a co-expression) (CD19.28z CAR T cells): potently inhibited activation and degranulation of CAR T cells in a dose-dependent manner
reversibility of the inhibitory effect on CAR T cell function (HA-GD2.28z CAR T cells [1]): reversible
CAR T cell cytokine secretion (HA-GD2.28z CAR T cells [1]; expanded in drug, drug removed 18-24 hours before 24 hours co-culture): dose-dependently augmented
inhibition of Fyn (Fyn): does not affect the function of Fyn or Src kinases
inhibition of Lck (Lck): can bind to and inhibit Lck
IFNγ secretion in response to tumor (HA-GD2.28z CAR T cells [2]): potently inhibited
IL-2 secretion in response to tumor (HA-GD2.28z CAR T cells [2]): potently inhibited
inhibition of Src kinases (Src kinases): does not affect the function of Fyn or Src kinases
cytotoxic response (HA-GD2.28z CAR T cells [3]): more potent cytotoxic response

Molecule: CC[C@H](C(=O)N1CCCC[C@H]1C(=O)O[C@H](CCc1ccc(OC)c(OC)c1)c1cccc(OCCN2CCOCC2)c1)c1cc(OC)c(OC)c(OC)c1 [shield-1]
CAR surface expression (GD2.28z.FKBP CAR): rapidly and dose-dependently regulated

CD69 and CD107a surface expression (FACS) after 6 h co-culture [4]: 80%
Molecule: CD19.28z CAR (FMC63 scFv)

Reference: patent US20200101108A1, “METHODS OF TREATING T CELL EXHAUSTION BY INHIBITING OR MODULATING T CELL RECEPTOR SIGNALING” (THE BOARD OF TRUSTEES OF THE LE-LAND STANDFORD JUNIOR …, priority 2017, published 2020)
